“And” between values parts separate entries of the source, which are not always exact repeats. Equal entries are not always repeated. Where two headings read alike, the source gives them in different places.
Key:
TNF-alpha = assay: LPS induced TNF-alpha inhibition (whole blood / THP-1 cells, ELISA); assay type: cell-based, human
Method: Following incubation with LPS, PBS was added (800 uL) and samples were spun for 10 minutes at 1500 g. […] TNFα protein concentrations were measured using R&D Systems high sensitivity ELISA kit.
The lipid peroxidation assay method of Ohkawa, H.; Ohishi, N.; Yaki, K. Anal. Biochem. 1979, 95, 351 was used to evaluate TNF α. […] Cells were induced with 25 ng/mL LPS for another 3 hrs. Cells were collected and spun at 1500 g for 10 minutes. Supernatant was collected and analyzed for TNFα.
OT-551 was used in both native form and in the form of nanoparticles. […] Other nitrogenous heterocyclic species of the invention are expected to show similar improvement in efficacy when disposed in nanoparticulate form.

lipid peroxidation = assay: Lipid peroxidation inhibition (method of Ohkawa); assay type: biochemical; conditions: for Lipid Peroxidation % Inhibition: 10 uM
[1] = test system: Angiogenesis in CAM model; assay: Neovascularization on the CAM (chick chorioallantoic membrane model of angiogenesis); assay type: in vivo, chicken; conditions: for CAM data % Inhibition / Percent inhibition of angiogenesis in CAM model at 30 ug: 30 ug; for Percent inhibition of angiogenesis in CAM model at 30 ug: unit assumed
Method in brief: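 Chick CAM of 10-day embryos given filter disks pretreated with cortisone acetate and saturated with bFGF (1 μg/ml) or other pro-angiogenic factors. After 24-48 hr, 10-25 ul test agent was injected intravenously or applied topically. After 3 days at 37° C, vessel branch points under each disk were counted at 50× (8 CAMs/group) and converted to % inhibition relative to positive and negative controls.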

[2] = test system: Human neuroblastoma SKN-SH cells, resistant to doxorubicin; assay: Chemoresistance: cancer cell viability (MTT) in presence or absence of doxorubicin; assay type: cell-based; conditions: for Mean OD (×10^−3), cancer cell viability: compound 50 ug/mL, MTT
Method in brief: (§1)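 Doxorubicin-resistant SKN-SH neuroblastoma cells, selected by stepwise exposure to 10^−9–10^−6 M doxorubicin over 3 months, in DMEM/10% FBS at 37 °C. Treated with doxorubicin alone or with hydroxylamine for 72 h (96 h in one variant). MTT read at 570 nm, survival relative to untreated cells.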

[3] = test system: Human neuroblastoma SKN-SH cells; assay: Chemoresistance: cancer cell viability (MTT) in presence or absence of doxorubicin; assay type: cell-based; conditions: compound alone; P<0.001
Method in brief: as §1

[4] = test system: bFGF (FGF2) stimulated angiogenesis in CAM model; assay: Angiogenesis in the CAM model using bFGF stimulus; assay type: in vivo, chicken; conditions: FGF2 (1 ug) + 30 ug injected
Method: The number of vessel branch points contained in a circular region equal to the area of a filter disk was counted for each section. Percent inhibition data are expressed as the quotient of the experimental value minus the negative control value divided by the difference between the positive control value and the negative control value. One image was counted in each CAM preparation, and findings from eight CAM preparations were analyzed for each treatment condition. In addition, each experiment was performed three times. The resulting angiogenesis index is the mean ± SEM (Standard Error of Measurement) of new branch points in each set of treatment. Statistical analysis of blood vessel branching patterns are performed by 1-way analysis of variance (ANOVA) comparing experimental with corresponding control groups. Statistical significance differences are assessed at P value of <0.05.
Assessment of Angiogenesis in the CAM Model Using bFGF Stimulus.
The CAM model protocol was modified to include stimulus with bFGF. The effect of injected OT 551 was assayed.

[5] = Ocular permeability and retinal levels after topical administration; assay type: in vivo

| Molecule | % Lipid Peroxidation inhibition (at 1 uM) (lipid peroxidation) [%] | Lipid Peroxidation % Inhibition (lipid peroxidation) [%] | Percent inhibition of angiogenesis in CAM model at 30 ug [1] [%] | Mean OD (×10^−3), cancer cell viability ([2]; Dox. 10^−6 M present (+)) | Mean OD (×10^−3), cancer cell viability ([2]; Dox. absent (−)) | melting point | also measured |
| --- | --- | --- | --- | --- | --- | --- | --- |
| 1-hydroxyl-4-(4-(2,2,6,6-tetramethylpiperidin-1-hydroxyl-4-yloxy)-1,2,5-thiadiazol-3-yloxy)-2,2,6,6-tetramethylpiperidine [Compound 14] | 88.6 | 95.2 | 75.1 |  |  |  | Mean Percent Inhibition of TNF-alpha using 5 ng/mL LPS (TNF-alpha; compound 10 uM, 5 ng/mL LPS): 63 ± 1%; IC50 (TNF-alpha; read-out: TNFalpha IC50): 11.4 µM; CAM data % Inhibition [1]: 95.2% |
| CC(=O)NC1CC(C)(C)N(O)C(C)(C)C1.Cl [Compound 2, 1-hydroxy-4-acetamido-2,2,6,6-tetramethylpiperidine] |  | 81.0 | 76 | 249.25 ×10^−3 | 496.33 ×10^−3 | 180.5 °C (dec.) |  |
| CC1(C)CC(Oc2nsnc2N2CCOCC2)CC(C)(C)N1O.Cl [Compound 4, 4-(4-(2,2,6,6-tetramethylpiperidin-1-hydroxyl-4-yloxy)-1,2,5-thiazol-3-yl)morpholine] | 87.0 | 91.4 | 92.8 | 88.00 ×10^−3 | 468.50 ×10^−3 |  | reversal of drug resistance ([2]; combined with doxorubicin, osteosarcoma, breast cancer, and neuroblastoma): strong ability to reverse drug resistance; killing of doxorubicin-resistant cells ([2]; compound alone, P<0.001): enhanced the killing; killing of doxorubicin-sensitive cells [3]: enhanced the killing |
| CC1(C)CC(=O)CC(C)(C)N1O [Compound 5, 1-Hydroxy-2,2,6,6-tetramethyl-piperidin-4-one] | 71.0 | 86.3 |  | 245.50 ×10^−3 | 556.50 ×10^−3 |  | inhibition at 10 µM (TNF-alpha; Homo sapiens, THP-1, read-out: Mean Percent Inhibition of TNF-alpha using 5 ng/mL LPS): 66 ± 7%; IC50 (TNF-alpha; Homo sapiens, THP-1, read-out: TNFalpha IC50 (uM)): 22.2 µM |
| CC1C(O)C(C)C(C)(C)N(O)C1(C)C.Cl (centres unmarked) [Compound 6, 2,2,3,5,6,6-Hexamethyl-piperidine-1,4-diol] | 70.5 | 89.0 | 40.4 | 185.25 ×10^−3 | 367.00 ×10^−3 | 191.5 °C (dec.) |  |
| CC1(C)CC(NC(=O)N2CCOCC2)CC(C)(C)N1O.Cl [Compound 11, N-(2,2,6,6-tetramethylpiperidin-1-hydroxyl-4-yl)morpholine-4-carboxamide] |  | 82.7 | 71 | 267.25 ×10^−3 | 470.25 ×10^−3 | 158.1 °C (dec.) |  |
| CC1(C)c2ccc(C(=O)O)cc2C(C)(C)N1O.Cl [Compound 15, 1,1,3,3-tetramethylisoindolin-2-hydroxyl-5-carboxylic acid] | 88.0 | 94.6 | 71.8 |  |  | 225.5 °C (dec.) |  |
| CC1(C)COCC(C)(C)N1O.Cl [Compound 20, 3,3,5,5-1-hydroxy-tetramethylmorpholine] |  | 90.2 | 78.6 | 107.5 ×10^−3 | 515.50 ×10^−3 | 184.6 °C (dec.) |  |
| CC1(C)C=C(C(N)=O)C(C)(C)N1O [Compound 23, 2,5-dihydro-2,2,5,5-tetramethyl-1H-pyrrole-3-carboxamide-1-hydroxy] |  |  | 48.8 | 416.25 ×10^−3 | 1432.50 ×10^−3 |  | IC50 (TNF-alpha; read-out: TNFalpha IC50): 87.4 µM |
| CC1(C)CC(Oc2nsnc2C#N)CC(C)(C)N1O [Compound 45] | 91.5 |  | 50 | 276.50 ×10^−3 | 1063.33 ×10^−3 |  |  |
| Cc1nsnc1OCC1=CC(C)(C)N(O)C1(C)C [Compound 47, 3-((1-hydroxy-2,5-dihydro-2,2,5,5-tetramethyl-1H-pyrrol-3-yl)methoxy)-4-methyl-1,2,5-thiadiazole] | 60.3 |  |  | 261.00 ×10^−3 | 1168.33 ×10^−3 |  | IC50 (TNF-alpha; Homo sapiens, THP-1, read-out: TNFalpha IC50): ≥ 100 µM |
| CC1(C)CC(OC(=O)C2CC2)CC(C)(C)N1O.Cl [OT-551 HCl] |  |  |  |  |  |  | Mean Percent Inhibition of TNF-alpha using 5 ng/mL LPS (TNF-alpha; compound 10 uM, 5 ng/mL LPS): 68 ± 6%; CAM data % Inhibition [1]: 75.2 ± 9.7% and 79.6 ± 7.9% and 74 ± 4%; % Inhibition ± SEM [4]: 74 ± 4%; Branch pts ± SEM [4]: 87 ± 3; levels in the retina ([5]; after topical administration): good levels; permeability through the cornea ([5]; in vivo): good permeability |
| CC1(C)CC(O)CC(C)(C)N1O [TEMPOL-H, 2,2,6,6-tetramethylpiperidine-1,4-diol, reference compound] |  |  |  |  |  |  | inhibition at 10 µM (TNF-alpha; Homo sapiens, THP-1, compound 10 uM, 5 ng/mL LPS, read-out: Mean Percent Inhibition of TNF-alpha using 5 ng/mL LPS): 74 ± 8%; effect of H2O2 in the CAM model ([1]; H2O2 induced angiogenesis, FIG. 1): dose dependent effect |

Source: patent publication US20080280890A1, “HYDROXYLAMINE COMPOUNDS AND METHODS OF THEIR USE” (priority 2007, published 2008)
